Consider 39 substances from US11214803B2, “Modulators of YAP1 expression” (Ionis Pharmaceuticals, Inc., priority 2019, dated 2022).

Strand notation (5' to 3'): a small letter for the sugar, then the base; units joined by * are phosphorothioate-linked, units joined directly phosphodiester-linked; [ ] holds rarer units or linkages, { } end groups; capitals alone tell only the bases. e = 2'-O-(2-methoxyethyl) (MOE); k = constrained ethyl (cEt); [5mC] = 5-methylcytosine; d = 2'-deoxy (DNA); m = 2'-O-methyl

The first data set relates to Yap1 mRNA. Nature of the data set: Antisense inhibition of human Yap1 in SNU-449 cells by modified oligonucleotides, single dose (Example 5, RTS36584). It counts as cell-based. Particulars: Table 39; SNU-449 cells, 10,000 cells per well, free uptake, 2,000 nM oligonucleotide, approx. 48 hours; RTS36584; normalized to RIBOGREEN; Yap1 mRNA relative to untreated control. The method in brief: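 Values are % of untreated control: Yap1 mRNA by quantitative RT-PCR (RTS36584), normalized to RIBOGREEN total RNA. Oligonucleotides were dosed at 2,000 nM, free uptake, in SNU-449 cells, with roughly 48 h exposure before RNA isolation.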
Regarding “1198376 (kT*dG*dG*dA*dA*dA*dT*dT*dG*dT*d[5mC]*kT*e[5mC]*kA*eT*kG; antisense) [Compound 1198376]”, the “YAP1 (% UTC)” value worked out at 36 % UTC. As to “1198388 (kT*dA*dT*dA*dA*d[5mC]*dT*dG*dG*dG*d[5mC]*kA*eA*kA*eT*kT; antisense) [Compound 1198388]”, the “YAP1 (% UTC)” value turned out to be 90 % UTC. On the same count and under the same terms, as for “1198411 (kA*dG*dG*dA*dT*dG*d[5mC]*dA*dT*dG*dG*kT*eT*kT*eT*kT; antisense) [Compound 1198411]”, the figure is 33 % UTC.

Still in this data set, the particulars now being: Table 40 (separate experiment); SNU-449 cells, 10,000 cells per well, free uptake, 2,000 nM oligonucleotide, approx. 48 hours; RTS36584; normalized to RIBOGREEN; Yap1 mRNA relative to untreated control.
As for “1198796 (antisense kA*eG*kT*dA*dA*dG*dG*dT*dT*dT*d[5mC]*d[5mC]*e[5mC]*eA*kG*kA) [Compound 1198796]”, the “YAP1 (% UTC)” value is 32 % UTC. In the case of “1198444 (kT*dT*dT*dA*dA*dA*dG*dT*dG*dT*dA*kT*eG*kT*e[5mC]*kA; antisense) [Compound 1198444]”, the “YAP1 (% UTC)” value came to 70 % UTC.

The data set is the same for the next values; noted with them: Table 41; SNU-449 cells, 10,000 cells per well, free uptake, 2,000 nM modified oligonucleotide, approximately 48 hours; RTS36584; normalized to RIBOGREEN; Yap1 mRNA relative to untreated control cells.
Consider “1198773 (kA*e[5mC]*kT*d[5mC]*dT*dT*dA*dT*dA*dT*dG*dG*eT*eT*kT*kT; antisense) [Compound 1198773]”, for which the “YAP1 (% UTC)” value is 58 % UTC. “1198673 (antisense kG*kA*dT*dT*dT*dA*dG*dG*dA*dT*dG*d[5mC]*kA*eT*kG*eG) [Compound 1198673]”: the “YAP1 (% UTC)” value is recorded as 10 % UTC. In the case of “1198691 (antisense kG*kT*dA*dA*dT*dA*dT*dT*dG*d[5mC]*dA*dA*kT*e[5mC]*kT*eG) [Compound 1198691]”, the “YAP1 (% UTC)” value turned out to be 38 % UTC.

“1198739 (k[5mC]*eA*k[5mC]*dT*dG*dA*dG*dG*dT*dA*dT*dA*eA*e[5mC]*kT*kG; antisense) [Compound 1198739]”: the “YAP1 (% UTC)” value came to 94 % UTC. “1198654 (kA*k[5mC]*dT*dT*dT*dT*dA*d[5mC]*dA*dT*dT*dA*kG*eG*kA*eA; antisense) [Compound 1198654]”: the “YAP1 (% UTC)” value is on record as 91 % UTC.

Staying with this data set, now noted: Table 42 (separate experiment); SNU-449 cells, 10,000 cells per well, free uptake, 2,000 nM modified oligonucleotide, approximately 48 hours; RTS36584; normalized to RIBOGREEN; Yap1 mRNA relative to untreated control cells.
Regarding “1198203 (kG*kG*dA*dA*dA*dT*dT*dG*dT*d[5mC]*dT*e[5mC]*eA*eT*kG*k[5mC]; antisense) [Compound 1198203]”, the “YAP1 (% UTC)” value was determined as 19 % UTC.

On to “1198683 (antisense kA*k[5mC]*dT*d[5mC]*dT*dT*dA*dT*dA*dT*dG*dG*kT*eT*kT*eT) [Compound 1198683]”, for which the “YAP1 (% UTC)” value is given as 27 % UTC. Still for that read-out and setting: the result for “1198208 (kA*kG*dA*dG*dT*dA*dT*dG*dT*dG*dG*e[5mC]*eA*eA*kT*kA; antisense) [Compound 1198208]” reads 25 % UTC; that for “1198238 (kA*kT*dA*dG*dT*dG*d[5mC]*dT*dT*dT*dG*eG*eA*eA*kG*kA) [Compound 1198238]”, 88 % UTC.

The same data set, now with this note: Table 43 experiment; SNU-449 cells, 10,000 cells per well, free uptake, 2,000 nM, approximately 48 hours; RTS36584; Yap1 mRNA normalized to RIBOGREEN, relative to untreated control cells.
Turning to “1198218 (kA*kG*dG*dT*dA*dT*dA*dA*d[5mC]*dT*dG*eG*eG*e[5mC]*kA*kA; antisense) [Compound 1198218]”, the “YAP1 (% UTC)” value stood at 40 % UTC.

Take “1198241 (kT*kT*dT*dA*dG*dG*dA*dT*dG*d[5mC]*dA*eT*eG*eG*kT*kT; antisense) [Compound 1198241]”: the “YAP1 (% UTC)” value is given as 32 % UTC. On to “1095594 (antisense k[5mC]*kT*dG*dA*dG*dG*dT*dA*dT*dA*dA*e[5mC]*eT*eG*kG*kG) [Compound 1095594]”, for which the “YAP1 (% UTC)” value was determined as 27 % UTC.

Regarding “1198480 (antisense kT*kT*dT*dT*dA*d[5mC]*dA*dT*dT*dA*dG*eG*kA*eA*k[5mC]*eA) [Compound 1198480]”, the “YAP1 (% UTC)” value amounted to 75 % UTC.

Staying with this data set, now noted: Table 44 experiment; SNU-449 cells, 10,000 cells per well, free uptake, 2,000 nM, approximately 48 hours; RTS36584; Yap1 mRNA normalized to RIBOGREEN, relative to untreated control cells.
For the substance “1198523 (kT*kT*dT*dA*dT*dG*dT*dA*dA*dT*dA*eT*kT*eG*k[5mC]*eA; antisense) [Compound 1198523]”, the “YAP1 (% UTC)” value stood at 93 % UTC. The same measure, in the same setting: as for “1198490 (antisense kT*kT*dT*dG*dG*dA*dA*dG*dA*dT*d[5mC]*eT*kG*eA*kA*eA) [Compound 1198490]”, the figure is 53 % UTC.

Staying with this data set, now noted: Table 45; Yap1 mRNA as percent of untreated control, SNU-449 cells, single dose.
For “1095510 (antisense k[5mC]*kT*dG*dA*dG*dG*dT*dA*dT*dA*dA*k[5mC]*dT*kG*dG*kG) [Compound 1095510]”, the “YAP1 (% UTC)” value is 35 % UTC.

Take “1198973 (kG*kA*d[5mC]*dT*dA*dA*dG*dT*dA*dA*dG*kG*dT*kT*dT*k[5mC]; antisense) [Compound 1198973]”: the “YAP1 (% UTC)” value was 53 % UTC.

The same data set, now with this note: Table 46; Yap1 mRNA as percent of untreated control, SNU-449 cells, single dose.
Regarding “1198813 (antisense kA*kG*dT*dA*dT*dG*dT*dG*dG*d[5mC]*dA*kA*eT*kA*eA*kT) [Compound 1198813]”, the “YAP1 (% UT)” value was 55 % UT. Take “1198855 (kT*kT*dA*dT*dA*dT*dG*dG*dT*dT*dT*kT*eG*kT*eG*kT; antisense) [Compound 1198855]”: the “YAP1 (% UT)” value is 30 % UT.

The same data set, now with this note: Table 48; Yap1 mRNA level relative to untreated control; modified oligonucleotides targeting SEQ ID NO.: 1 and 2.
For “1198313 (kA*kG*k[5mC]*dA*d[5mC]*dT*dT*dT*dT*dA*d[5mC]*dA*kT*eT*kA*eG; antisense) [Compound 1198313]”, the “YAP1 (% UT)” value is 31 % UT. The same measure, in the same setting: as for “1198317 (kT*kT*kG*dG*dA*dA*dG*dA*dT*d[5mC]*dT*dG*kA*eA*kA*e[5mC]; antisense) [Compound 1198317]”, the figure is 74 % UT.

Still in this data set, the particulars now being: Table 50; Yap1 mRNA remaining as percent of untreated control (UT), SNU-449 cells, single dose.
Turning to “1198562 (antisense kA*kG*kG*dT*dA*dT*dA*dA*d[5mC]*dT*dG*dG*kG*k[5mC]*kA*eA) [Compound 1198562]”, the “YAP1 (% UT)” value worked out at 30 % UT.

The data set is the same for the next values; noted with them: Table 51; Yap1 mRNA remaining as percent of untreated control (UT), SNU-449 cells, single dose.
Turning to “1197243 (antisense kA*kA*k[5mC]*dA*mC*dT*dG*dA*dG*dG*dT*dA*dT*kA*kA*k[5mC]) [Compound 1197243]”, the “YAP1 (% UT)” value was determined as 81 % UT. “1200796 (kT*kT*kA*dG*dA*mG*dT*dA*dT*dG*dT*dG*dG*k[5mC]*kA*kA; antisense) [Compound 1200796]”: the “YAP1 (% UT)” value is 15 % UT. In the case of “1197259 (kA*kT*kA*dT*mG*dG*dT*dT*dT*dT*dG*dT*dG*kT*kG*kT) [Compound 1197259]”, the “YAP1 (% UT)” value was 59 % UT.

Take “1197242 (antisense k[5mC]*kA*k[5mC]*dT*mG*dA*dG*dG*dT*dA*dT*dA*dA*k[5mC]*kT*kG) [Compound 1197242]”: the “YAP1 (% UT)” value turned out to be 46 % UT. With “1200785 (kA*kT*kT*dG*dT*mC*dT*d[5mC]*dA*dT*dG*d[5mC]*d[5mC]*kT*kT*kA; antisense) [Compound 1200785]”, the “YAP1 (% UT)” value is given as 15 % UT.

Still in this data set, the particulars now being: Table 52; Yap1 mRNA, modified oligonucleotides targeting SEQ ID NO: 1 and 2.
Consider “1200830 (kT*kT*kA*dG*dG*mA*dT*dG*d[5mC]*dA*dT*dG*dG*kT*kT*kT; antisense) [Compound 1200830]”, for which the “YAP1 (% UT)” value worked out at 50 % UT. “1200838 (kA*kT*kA*dT*dG*mG*dT*dT*dT*dT*dG*dT*dG*kT*kG*kT; antisense) [Compound 1200838]”: the “YAP1 (% UT)” value was 65 % UT. On to “1200872 (kA*kG*kA*d[5mC]*dT*mA*dA*dG*dT*dA*dA*dG*dG*kT*kT*kT; antisense) [Compound 1200872]”, for which the “YAP1 (% UT)” value was 98 % UT. As for “1200814 (kA*k[5mC]*kT*dT*dT*mU*dA*d[5mC]*dA*dT*dT*dA*dG*kG*kA*kA; antisense) [Compound 1200814]”, the “YAP1 (% UT)” value is recorded as 73 % UT. “1200832 (kA*kT*kT*dT*dA*mG*dG*dA*dT*dG*d[5mC]*dA*dT*kG*kG*kT; antisense) [Compound 1200832]”: the “YAP1 (% UT)” value came out at 61 % UT. Take “1200824 (kG*k[5mC]*kT*dT*dT*mG*dG*dA*dA*dG*dA*dT*d[5mC]*kT*kG*kA; antisense) [Compound 1200824]”: the “YAP1 (% UT)” value was 43 % UT.

Still in this data set, the particulars now being: Yap1 mRNA, percent of untreated control; modified oligonucleotides targeting SEQ ID NO: 1 and 2; Table 47.
Regarding “1198875 (kA*kA*dA*dG*dT*dG*dT*dA*dT*dG*dT*k[5mC]*eA*kG*eA*kA; antisense) [Compound 1198875]”, the “YAP1 (% UT)” value was 5 % UT.
